Results: US4985453A, “Parabanic acid derivatives and pharmaceutical compositions thereof” (Nippon Zoki Pharmaceutical Co., Ltd., priority 1988, dated 1991)

How the values were obtained:
[1] = molecular target: T1, aldose reductase prepared from rat lenses (Rattus norvegicus, UniProt P07943); test: Aldose reductase inhibitory activity; format: biochemical; conditions: at 5×10^-7 M; glyceraldehyde substrate, NADPH, absorbance at 340 nm; read-out: Inhibitory rate (%) against aldose reductase
T1 construct: aldose reductase prepared from rat lenses; from tissue; host or cells: rat lens
Procedure: Aldose reductase inhibitory activity of the compound of the present invention was evaluated by using aldose reductase prepared from rat lenses. The test compound was added to the reaction mixture consisting of phosphate buffer, NADPH and aldose reductase. After stability of absorbance was confirmed for a few minutes, glyceraldehyde was added to the reaction mixture and then the decrease in absorbance at 340 nm with the passage of time was measured to assay the inhibitory activity of the test compound against aldose reductase.
The inhibitory rate (%) against aldose reductase in the table is the values at 5×10^-7 M of the each test compound.

[2] = Acute toxicity test (oral, LD50); conditions: rat, in vivo, Wistar-strain male rats, groups of 8, death rate of 7 days
Procedure: The test compounds of the present invention were orally administered to groups of 8 Wistar-strain male rats, and the LD50 values were calculated based on the death rate of 7 days.

Row | SMILES | inhibition at 0.5 µM [1] [%] | LD50 at 168 h [2] [mg/kg]
1 | CCOC(=O)CN1C(=O)C(=O)N(Cc2cccc([N+](=O)[O-])c2)C1=O [Compound 19, Ethyl 1-(3-nitrobenzyl)-2,4,5-trioxoimidazolidine-3-acetate] | 31 | 
2 | CCCCCCN1C(=O)C(=O)N(CC(=O)O)C1=O [Compound 33, 3-Carboxymethyl-1-hexylparabanic acid] | 35 | 
3 | CC1CCC(N2C(=O)C(=O)N(CC(=O)O)C2=O)CC1 (stereo not shown) [Compound 34, 3-Carboxymethyl-1-(4-methylcyclohexyl)parabanic acid] | 49 | 
4 | Cc1ccccc1CN1C(=O)C(=O)N(CC(=O)O)C1=O [Compound 36, 3-Carboxymethyl-1-(2-methylbenzyl)parabanic acid] | 41 | 
5 | Cc1ccc(CN2C(=O)C(=O)N(CC(=O)O)C2=O)cc1 [Compound 37, 3-Carboxymethyl-1-(4-methylbenzyl)parabanic acid] | 30 | 
6 | COc1cccc(CN2C(=O)C(=O)N(CC(=O)O)C2=O)c1 [Compound 39, 3-Carboxymethyl-1-(3-methoxybenzyl)parabanic acid] | 44 | 
7 | O=C(O)CN1C(=O)C(=O)N(Cc2ccccc2Cl)C1=O [Compound 41, 3-Carboxymethyl-1-(2-chlorobenzyl)parabanic acid] | 32 | 
8 | O=C(O)CN1C(=O)C(=O)N(Cc2cccc(Cl)c2)C1=O [Compound 42, 3-Carboxymethyl-1-(3-chlorobenzyl)parabanic acid] | 31 | 
9 | O=C(O)CN1C(=O)C(=O)N(Cc2ccc(Cl)cc2)C1=O [Compound 43, 3-Carboxymethyl-1-(4-chlorobenzyl)parabanic acid] | 56 | 
10 | O=C(O)CN1C(=O)C(=O)N(Cc2ccc(Br)cc2)C1=O [Compound 44, 1-(4-Bromobenzyl)-3-carboxymethylparabanic acid] | 65 | > 5000
11 | O=C(O)CN1C(=O)C(=O)N(Cc2ccc(Cl)cc2Cl)C1=O [Compound 46, 3-Carboxymethyl-1-(2,4-dichlorobenzyl)parabanic acid] | 61 | 
12 | O=C(O)CN1C(=O)C(=O)N(Cc2ccc(Cl)c(Cl)c2)C1=O [Compound 47, 3-Carboxymethyl-1-(3,4-dichlorobenzyl)parabanic acid] | 75 | > 2000
13 | O=C(O)CN1C(=O)C(=O)N(Cc2cccc([N+](=O)[O-])c2)C1=O [Compound 48, 3-Carboxymethyl-1-(3-nitrobenzyl)parabanic acid] | 75 | > 5000
14 | O=C(O)CN1C(=O)C(=O)N(CCc2ccccc2)C1=O [Compound 49, 3-Carboxymethyl-1-(2-phenylethyl)parabanic acid] | 30 | 
15 | Cc1ccc(CCN2C(=O)C(=O)N(CC(=O)O)C2=O)cc1 [Compound 50, 3-Carboxymethyl-1-(2-(4-methylphenyl)ethyl)parabanic acid] | 42 | 
16 | COc1ccc(CCN2C(=O)C(=O)N(CC(=O)O)C2=O)cc1OC [Compound 51, 3-Carboxymethyl-1-(2-(3,4-dimethoxyphenyl)ethyl)parabanic acid] | 42 | 
17 | O=C(O)CN1C(=O)C(=O)N(CCc2ccccc2Cl)C1=O [Compound 52, 3-Carboxymethyl-1-(2-(2-chlorophenyl)ethyl)parabanic acid] | 37 | 
18 | O=C(O)CN1C(=O)C(=O)N(CCc2ccc(Br)cc2)C1=O [Compound 53, 1-(2-(4-Bromophenyl)ethyl)-3-carboxymethylparabanic acid] | 47 | 
19 | O=C(O)CN1C(=O)C(=O)N(CCc2ccc(Cl)c(Cl)c2)C1=O [Compound 54, 3-Carboxymethyl-1-(2-(3,4-dichlorophenyl)ethyl)parabanic acid] | 57 | 
20 | O=C(O)CN1C(=O)C(=O)N(CCc2cccc([N+](=O)[O-])c2)C1=O [Compound 55, 3-Carboxymethyl-1-(2-(3-nitrophenyl)ethyl)parabanic acid] | 36 | 
21 | O=C(O)CN1C(=O)C(=O)N(CCCCc2ccccc2)C1=O [Compound 57, 3-Carboxymethyl-1-(4-phenylbutyl)parabanic acid] | 25 | 
22 | O=C(O)CN1C(=O)NC(=O)C1=O [Compound 60, 1-carboxymethylparabanic acid] | 31 | 
